Results taken from the METLIN SMRT retention time set (Domingo-Almenara et al. 2019).

Assay: gradient 5% acetonitrile 3 min, to 50% in 2 min, to 85% in 15 min, held 3 min, 100 µL/min
Settings: column: Zorbax Extend-C18 2.1 x 50 mm; eluents: water / acetonitrile, 0.1% formic acid
Method in brief: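 The system's dead and dwell volumes were 40 μL and 900 μL, with a Zorbax Extend-C18 column (2.1 × 50 mm, 1.8 μm) run at 100 μL/min in water and acetonitrile containing 0.1% formic acid each. Pure standards were analyzed in mixtures of ~100 molecules by HPLC–quadrupole time-of-flight mass spectrometry in positive and negative ionization mode. Retention time was assigned from computationally picked, manually inspected adduct peaks.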

Compound	RP-LC retention time [s]
Cc1ccc(C(=O)NC2CCCCCC2)cc1NC(=O)C1=CSCCO1	892
CCc1nnc2ccc(-c3noc(-c4ccc(NC(C)=O)cc4)n3)cn12	705
N#Cc1cccc(C(=O)NC2CCCC(OC(=O)Nc3ccccc3)C2)c1 (centres undefined)	819
COc1ccc(-c2noc(Cn3ccn4nc(-c5ccccc5)cc4c3=O)n2)cc1	1030
Cc1ccc(NC(=O)N2CCC(CCN)CC2)cc1	589
CCOC(=O)C(C)Sc1ccc2nnc(CCNC(=O)c3ccc(OC)cc3)n2n1 (centres undefined)	647
CCOCCCn1c(SCc2nc(-c3ccc(F)cc3)no2)nc2ccccc2c1=O	1150
COc1ccc2c(c1)CC(NC(=O)Nc1ccc(Br)cc1)CO2 (centres undefined)	888
Cn1c(=O)n(C)c2cc(CNCCc3ccc(Cl)cc3Cl)ccc21	653
O=C(c1ccsc1)N1CCCCC1c1nncn1-c1ccccc1 (centres undefined)	676
COc1ccc(-c2nnc(COc3ccc(NC(=O)C4CCCC4)cc3)o2)cc1	946
Cc1cc(CNC(=O)C(=O)Nc2cc(Cl)ccc2C#N)c(C)o1	958
COC1C(=O)N(CC2CC2)C12CCN(C(=O)c1ccc(C)s1)CC2 (centres undefined)	566
CN(C)c1ccc(NC(=O)Cn2cccc2-c2nc(-c3ccc4c(c3)OCO4)no2)cc1	752
COc1ccc(-c2ccc(=O)n(Cc3nc(-c4ccc(Br)cc4)no3)n2)cc1	1040
COc1ccc(NC(=O)C2CCN(c3cncnc3N3CCCC3)CC2)cc1OC	616
COc1ccc(CSc2nccc3c2ccn3CC(=O)NCc2ccc(C)o2)cc1	725
O=S(=O)(c1ccc(-c2nnc(C3CCCC3)o2)o1)N1CCCCCC1	1060
COc1ccc(OCC(=O)N2CCCN(c3cc(=O)n(C(C)C)c(=O)n3C(C)C)CC2)cc1	834
Cc1ncc2c(n1)C[C@@H]1CC[C@H]2N1S(=O)(=O)c1ccc(F)c(C)c1	732
COc1ccc(N2CCN(C(=O)c3ccc(=O)n(CCN4CCCC4)c3)CC2)cc1	586
CC(C)(C)c1ccc(-c2nc3ccccc3[nH]2)cc1	702
O=C(c1ccco1)N1N=C(c2ccco2)CC1c1ccc2nccnc2c1 (centres undefined)	718
CCCN1CCN(C(=O)c2cc3n(n2)CC(C)(C(=O)NC2CCCCCC2)N(C)C3=O)CC1 (centres undefined)	614
COC(=O)c1ccc(NC(=O)C2=Cc3ccccc3OC=C2)cc1	1060
CCS(=O)(=O)Nc1ccc(C2(C(=O)N3CCCC(C)C3)CCCCC2)cc1 (centres undefined)	1010

Compound	RP-LC retention time [s]
Cc1cc(C)cc(NC(=O)C2CCN(c3c(C(=O)N4CCC(C)CC4)cnc4snc(C)c34)CC2)c1	1100
COc1ccccc1N1CCN(c2ccc3cc(S(=O)(=O)N4CCCCC4)ccc3n2)CC1	987
CCCN1CCN(c2ncc(C(=O)Nc3ccc(OCC)cc3)c(N)n2)CC1	617
Cc1ccc(Sc2nccnc2N2CCC(C(=O)N3CCN(c4ccccn4)CC3)CC2)cc1	706
Cc1ccc(CNc2c(-c3ccc(Cl)cc3)nc3ncccn23)cc1	867
C#CCCOC(=O)Nc1ccccc1	878
O=C(CN1C(=O)COc2ccccc21)N1CCN(c2ccc(-c3noc(C4CCC4)n3)cc2)CC1	1000
Cc1nc2cc(-c3noc(Cc4cccs4)n3)ccc2n(C2CCCC2)c1=O	1200
Cc1noc(-c2ccc(OC3CN(S(=O)(=O)c4c(C)nn(C)c4C)C3)cc2)n1	807
Cc1ccc(S(=O)(=O)N(C)CC2CCOC2)cc1F (centres undefined)	849
CC(C)n1c(N2CCCN(C(=O)c3ccncc3)CC2)cc(=O)n(C(C)C)c1=O	621
Cc1cc(CN2CCC(CNC(=O)C(=O)NCc3ccc4c(c3)OCO4)CC2)c(C)o1	583
O=C(c1ccc(-c2cccs2)nc1)N1CCCC1	737
O=C(Nc1ccccc1F)C1CCc2sc(C(=O)N3CCCC3)cc2C1 (centres undefined)	761
O=C(NC1CCN(c2cc(-c3ccc(Cl)cc3)[nH]n2)C1)c1ccc2nc[nH]c2c1 (centres undefined)	626
CNC(=O)[C@@H]1CN(C(=O)c2cnc(C)cn2)C[C@H]1c1n[nH]c(C)n1	549
COc1ccc2nc(C(=O)N3CCN(c4ccc(F)cc4)CC3)cn2n1	731
COc1cccc2c(SCc3ccccn3)nccc12	683
CCOc1cc(=O)n2c(c1C(=O)NC1CC1)CCCCC2	611
O=C(c1cc2ccccc2o1)N1CC(c2nc(-c3cccnc3)no2)C1	709
CCOc1ccccc1C(=O)Nc1nnc(SC(C)c2ccccc2)s1 (centres undefined)	1140
O=C(CN1C(=O)c2ccccc2C1=O)Oc1ccc2nc(N3CCCCC3)sc2c1	923
O=C(CCc1c(-c2ccc(Br)cc2)nc2ccccn12)NC1CCCCC1	702
CC(=O)N1CCc2cc(N3CC(C(=O)Nc4ccc(C(F)(F)F)cc4)CC3=O)ccc21 (centres undefined)	798
Cc1cc(C)n2c(Nc3ccc(Cl)cc3)c(-c3ccc(O)cc3)nc2n1	707
COc1cc(-c2noc(Cn3ccnc3)n2)cc(OC)c1OC	604

Second part, the compound after the results:

RP-LC retention time [s]	Compound
978	CC1CC(=O)N(CC(=O)Nc2cccc(Cl)c2)c2ccccc2S1 (centres undefined)
806	Cc1ccsc1C(=O)NCCn1c(=O)n(Cc2ccccc2)c2cccnc21
872	CCOC(=O)c1ccc(NC(=O)Cn2c(=O)nc(N3CCCC(C)C3)c3ccccc32)cc1 (centres undefined)
720	CCOC(=O)CNC(=O)N1CCc2nc(-c3ccccc3)ncc2C1
979	Cc1ccc(OC(=O)c2cc3c(C)nn(-c4ccccc4)c3s2)cc1C
642	CCNC(=O)C1CCCN(c2nc3ncn(CC(=O)NCc4ccc(OC)cc4)c(=O)c3s2)C1 (centres undefined)
710	CC(C)(C)NC(=O)c1ccc(-n2cc(CNC(=O)C3CCC3)cn2)cc1
745	Cc1nc(OCC(=O)Nc2ccccc2Br)c2ccccc2n1
780	CCCNC(=O)N1CCc2c(c(-c3nc(Cc4ccccc4)no3)nn2C)C1
661	O=C(C1CCN(c2cnn(Cc3ccccc3)c(=O)c2)CC1)N1CCOCC1
943	Cc1ccccc1NC(=O)c1cn(CC2CCCO2)cc2c(=O)n(-c3ccccc3)nc1-2 (centres undefined)
756	Cc1ccc2c(c1)C(=O)NC1(CCN(C(=O)c3cccc(F)c3)CC1)N2C
919	CCS(=O)(=O)N1CC(=O)N(c2ccc(C)c(Cl)c2)C(C)(C(=O)NCc2ccccc2)C1 (centres undefined)
883	CCC(C)NC(=O)NC1CCN(C2=NS(=O)(=O)C(c3ccc(Cl)cc3)=C2C)CC1 (centres undefined)
1160	CCCNC(=O)C1CCN(c2ccc(SCC(=O)Nc3ccc(C)cc3Cl)nn2)CC1
608	CS(=O)(=O)N1CCN(C(=O)c2coc(NC(=O)c3ccccc3)n2)CC1
578	O=C(NCCn1ncccc1=O)NCc1ccccc1
957	CCOC(=O)c1ccc(NC(=O)c2ccc3c(c2)N(CC)C2CCCCN2C3=O)cc1 (centres undefined)
619	O=C(Cn1nc2n(c1=O)CCCC2)NCc1ccc2c(c1)OCO2

RP-LC retention time [s]	Compound
873	CCN(CC)C(=O)C1CCN(S(=O)(=O)c2ccc3c(c2)sc(=O)n3C(C)C)CC1
1320	CCCc1ccc(S(=O)(=O)N2CCCC2c2nc(-c3ccc(C)cc3)no2)cc1 (centres undefined)
919	CC1(C(=O)NC2CCCCCCC2)CN(S(C)(=O)=O)CC(=O)N1c1cccc(F)c1 (centres undefined)
740	COc1ccc(-n2nc3c(N4CCCC(C(=O)NCCc5ccccc5)C4)nnc(C)c3c2C)cc1 (centres undefined)
716	O=S(=O)(c1ccccc1F)N1CCC(Nc2cccnc2)C1 (centres undefined)
565	COc1ccc2c(c1)c(CN1CCC(C(=O)NCCCN3CCc4ccccc4C3)CC1)cn2C
764	CCOC(=O)Cn1c(C2CC(=O)N(Cc3ccc(F)cc3)C2)nc2ccccc21 (centres undefined)
1100	CCOC(=O)c1ccccc1NC(=O)C1CCCN(c2cc(-n3cccn3)ncn2)C1 (centres undefined)
763	CC(=O)N1CCc2cc(CNS(=O)(=O)c3ccccc3Cl)ccc21
758	COc1ccc(-c2cc3n(n2)CCCN(C(=O)c2ccco2)C3)cc1
912	Cn1c(=O)n(-c2ccc(F)cc2)c2nc(-c3ccccc3Cl)nc(C(N)=O)c21
979	O=c1n(Cc2ccccc2Cl)nc2ccc(S(=O)(=O)N3CCCCC3)cn12
721	O=C(NCc1ccco1)C1CCCN(c2nc3ccccc3[nH]c2=O)C1 (centres undefined)
876	CCCn1cc(S(=O)(=O)Nc2ccc(OC)c(OC)c2)c2cccnc21
1030	CCc1ccccc1NC(=O)Cn1cnc2c(sc3nc(-c4ccccc4)ccc32)c1=O
641	O=C(NCCc1c[nH]c2ccccc12)c1nc[nH]c1C(=O)NCc1ccccn1
799	O=C(Nc1ccc(S(=O)(=O)Nc2nccs2)cc1)c1sc2ccccc2c1Cl
656	Cc1ccc(C)c(S(=O)(=O)NCCn2c(C)cnc2C2CCC2)c1
